Results taken from US5919780A, “Tricyclic inhibitors of protein farnesyltransferase” (Warner Lambert Company, priority 1997, dated 1999).
Like-named read-outs stand apart in the source and are kept apart here.

Key:
[1] = molecular target: T1, rat brain farnesyl protein transferase (Rattus norvegicus, UniProt Q02293+Q04631); experiment: Farnesyl Protein Transferase Inhibition (PFT/FPT inhibitory activity); type: biochemical
T1 construct: 40-fold purified rat brain farnesyl protein transferase; from tissue; host or cells: rat brain
Description: The protein:farnesyltransferase (PFT) or farnesyl protein transferase (FPT) inhibitory activity of compounds of Formula I was assayed in HEPES buffer (pH 7.4) containing 5 mM potassium phosphate and 20 μM ZnCl2. The solution also contained 7 mM DTT, 1.2 mM MgCl2, 0.1 mM leupeptin, 0.1 mM pepstatin, and 0.2 mM phenylmethylsulfonyl fluoride. Assays were performed in 96 well plates (Wallec) and employed solutions composed of varying concentrations of a compound of Formula I in 100% DMSO. Upon addition of both substrates, radiolabeled farnesyl pyrophosphate ([1-^3 H], specific activity 15-30 Ci/mmol, final concentration 0.12 μM) and (biotinyl)-Ahe-Tyr-Lys-Cys-Val-Ile-Met peptide (final concentration 0.2 μM), the enzyme reaction was started by addition of 40-fold purified rat brain farnesyl protein transferase. After incubation at 37° for 30 minutes, the reaction was terminated by diluting the reaction 2.5-fold with a stop buffer containing 1.5M magnesium acetate, 0.2M H3 PO4, 0.5% BSA, and strepavidin beads (Amersham) at a concentration of 1.3 mg/mL. After allowing the plate to settle for 30 minutes at room temperature, radioactivity was quantitated on a microBeta counter (Model 1450, Wallec). Compounds of Formula I show IC50 values of 0.8 to 60 μM in this assay and are thus valuable inhibitors of protein:farnesyltransferase enzyme which may be used in the medical treatment of tissue proliferative diseases, including cancer and restenosis. The assay was also carried out without 5 mM potassium phosphate.

Ras protein = experiment: Gel Shift Assay against ras protein; type: cell-based; conditions: ras-transformed cells, 18-hour incubation; read-out: Gel Shift Minimum Effective Dose
Description: Twenty-four hours after planting 2×10^6 ras-transformed cells per treatment condition, the farnesylation inhibitor is added at varying concentrations. Following an 18-hour incubation period, cells are lysed in phosphate-buffered saline containing 1% Triton X-100, 0.5% sodium deoxycholate, and 0.1% SDS, pH 7.4 in the presence of several protease inhibitors (PMSF, antipain, leupeptin, pepstatin A, and aprotinin all at 1 μg/mL). Ras protein is immunoprecipitated from the supernatants by the addition of 3 μg v-H-ras Ab-2 (Y13-259 antibody from oncogene Science). After overnight immunoprecipitation, 30 μL of a 50% protein G-Sepharose slurry (Pharmacia) is added followed by 45-minute incubation. Pellets are resuspended in 2× tris-glycine loading buffer (Novex) containing 5% B-mercaptoethanol and then denatured by 5 minutes boiling prior to electrophoresis on 14% Tris-glycine SDS gels. Using Western transfer techniques, proteins are transferred to nitrocellulose membranes followed by blocking in blocking buffer. Upon overnight incubation with primary antibody (pan-ras Ab-2 from Oncogene Science), an antimouse HRP conjugate secondary antibody (Amersham) is employed for detection of the ras protein. Blots are developed using ECL techniques (Amersham).

[2] = Hepes with 5 mM PO4^-3, read-out: Farnesyl Protein Transferase Inhibition Hepes/5 mM PO4^-3 IC50
[3] = Hepes, without 5 mM phosphate, read-out: Farnesyl Protein Transferase Inhibition Hepes IC50

Structure (SMILES) | IC50 [1, 2] | IC50 [1, 3] | minimal effective concentration (Ras protein)
Clc1ccc2c(c1)N=C(NCc1cccnc1)c1ccccc1N2 [Example 1, (8-Chloro-5H-dibenzo[b,e][1,4]diazepin-11-yl)pyridin-3-ylmethyl-amine] | 5 µM | 3.7 µM | 50 µM
Clc1ccc2c(c1)N=C(NCCc1cnc[nH]1)c1ccccc1N2 [Example 2, (8-Chloro-5H-dibenzo[b,e][1,4]diazepin-11-yl)-[2-(3H-imidazol-4-yl)-ethyl]-amine] | 3 µM | 2.4 µM | 25 µM
Clc1ccc2c(c1)N=C(NCCc1cccnc1)c1ccccc1N2 [Example 3, (8-Chloro-5H-dibenzo[b,e][1,4]diazepin-11-yl)-(2-pyridin-3-yl-ethyl)-amine] | 57 µM | 36 µM | > 50 µM
Clc1ccc2c(c1)N=C(NCCn1ccnc1)c1ccccc1N2 [Example 4, (8-Chloro-5H-dibenzo[b,e][1,4]diazepin-11-yl)-(2-imidazol-1-yl-ethyl)-amine] | 2.5 µM | 3 µM | 5 µM
Clc1ccc2c(c1)N=C(NCCCn1ccnc1)c1ccccc1N2 [Example 5, (8-Chloro-5H-dibenzo[b,e][1,4]diazepin-11-yl)-(3-imidazol-1-yl-propyl)-amine] | 4.5 µM | 6.8 µM | 2.5 µM
Clc1ccc2c(c1)Nc1ccccc1C(NCc1cccnc1)=N2 [Example 6, (7-Chloro-5H-dibenzo[b,e][1,4]diazepin-11-yl)pyridin-3-ylmethyl-amine] | 5.6 µM | 5.5 µM | 50 µM
c1cncc(CNC2=Nc3ccccc3Nc3ccccc32)c1 [Example 7, (5H-Dibenzo[b,e][1,4]diazepin-11-yl)-pyridin-3-ylmethyl-amine] | 12 µM | 23 µM | 50 µM
Cc1ccc2c(c1)N=C(NCc1cccnc1)c1ccccc1N2 [Example 8, (8-Methyl-5H-dibenzo[b,e][1,4]diazepin-11-yl)-pyridin-3-ylmethyl-amine] | 31 µM | 24 µM | 
COc1ccc2c(c1)N=C(NCc1cccnc1)c1ccccc1N2 [Example 9, (8-Methoxy-5H-dibenzo[b,e][1,4]diazepin-11-yl)-pyridin-3-ylmethyl-amine] | 16 µM | 27 µM | 50 µM
Brc1ccc2c(c1)N=C(NCc1cccnc1)c1ccccc1N2 [Example 10, (8-Bromo-5H-dibenzo[b,e][1,4]diazepin-11-yl)-pyridin-3-ylmethyl-amine] | 36 µM | 6 µM | 
Clc1cc2c(cc1Cl)Nc1ccccc1C(NCc1cccnc1)=N2 [Example 11, (7,8-Dichloro-5H-dibenzo[b,e][1,4]diazepin-11-yl)-pyridin-3-ylmethyl-amine] | 1.6 µM | 0.8 µM | 50 µM
c1ccc(COc2ccc3c(c2)N=C(NCc2cccnc2)c2ccccc2N3)cc1 [Example 12, (8-Benzyloxy-5H-dibenzo[b,e][1,4]diazepin-11-yl)-pyridin-3-ylmethyl-amine] | 37 µM | > 50 µM | > 50 µM
COc1cc2c(cc1OC)C(NCc1cccnc1)=Nc1cc(Cl)c(Cl)cc1N2 [Example 13, (7,8-Dichloro-2,3-dimethoxy-5H-dibenzo[b,e][1,4]diazepin-11-yl)-pyridin-3-ylmethyl-amine] | 50 µM | 30 µM | 
c1cncc(CNC2=Nc3ccccc3Nc3ncccc32)c1 [Example 14, (11H-Benzo[b]pyrido[2,3-e][1,4]diazepin-5-yl)-pyridin-3-ylmethyl-amine] | 17 µM | 14 µM | 50 µM
CN1c2ccc(Cl)cc2N=C(NCc2cccnc2)c2ccccc21 [Example 15, (8-Chloro-5-methyl-5H-dibenzo[b,e][1,4]diazepin-11-yl)-pyridin-3-ylmethyl-amine] | 17 µM | 12.2 µM | > 25 µM
Clc1ccc2c(c1)N=C(NCc1cccnc1)c1ccccc1S2 [Example 16, (8-Chloro-dibenzo[b,f][1,4]thiazepin-11-yl)pyridin-3-ylmethyl-amine] | 22 µM | 9.8 µM | 
O=S1(=O)c2ccc(Cl)cc2N=C(NCc2cccnc2)c2ccccc21 [Example 17, (8-Chloro-5,5-dioxo-5H-5λ^6-dibenzo[b,f][1,4]thiazepin-11-yl)-pyridin-3-ylmethyl-amine] | 6.1 µM | 5 µM | 
Clc1ccc2c(c1)N=C(NCc1cccnc1)c1ccccc1O2 [Example 18, (8-Chloro-dibenzo[b,f][1,4]oxazepin-11-yl)-pyridin-3-ylmethyl-amine] | 16.5 µM | 8.7 µM | 
